pIC50: −log10 of the molar value.
Assay: Inhibition Assay: Class I PI3-Ks can be either purchased (p110α/p85α, p110β/p85α, p110δ/p85α from Upstate, and p110γ from Sigma) or expressed as previously described (Knight et al., 2004). IC50 values are measured using either a standard TLC assay for lipid kinase activity (described below) or a high-throughput membrane capture assay. Kinase reactions are performed by preparing a reaction mixture containing kinase, inhibitor (2% DMSO final concentration), buffer (25 mM HEPES, pH 7.4, 10 mM MgCl2), and freshly sonicated phosphatidylinositol (100 μg/ml). Reactions are initiated by the addition of ATP containing 10 μCi of γ-32P-ATP to a final concentration 10 or 100 μM and allowed to proceed for 5 minutes at room temperature. For TLC analysis, reactions are then terminated by the addition of 105 l 1N HCl followed by 160 μl CHCl3:MeOH (1:1). The biphasic mixture is vortexed, briefly centrifuged, and the organic phase is transferred to a new tube using a gel loading pipette tip precoated with CHCl3. This extract is spotted on TLC plates and developed for 3-4 hours in a 65:35 solution of n-propanol:1M acetic acid. The TLC plates are then dried, exposed to a phosphorimager screen (Storm, Amersham), and quantitated. For each compound, kinase activity is measured at 10-12 inhibitor concentrations representing two-fold dilutions from the highest concentration tested (typically, 200 μM).

Row | pIC50 | Structure (SMILES)
1 | < 6.00 | CN1CCN(c2nc3ccccc3cc2Cn2nc(-c3cc(O)cc(F)c3)c3c(N)ncnc32)CC1
2 | < 6.00 | Nc1nc2ccc(-c3nn(Cc4cc5ccccc5nc4-c4ccccc4C(F)(F)F)c4ncnc(N)c34)cc2[nH]1

— ChEMBL document CHEMBL5726506, “Heterocyclic kinase inhibitors” (2017)
